Tests used:
duck salad = assay: Test C flooded paddy test; type: in vivo, Heteranthera limosa; conditions: Flood
How it was run: (§1)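 Flooded 3 cm over soil; compound into paddy water; depth kept constant. Greenhouse 13–15 d.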

johnsongrass = assay: Test C pre-/postemergence test; type: in vivo, Sorghum halepense
How it was run: (§2)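 Test chemicals were formulated with surfactant in a non-phytotoxic solvent and sprayed both on freshly planted seeds (preemergence) and on 1- to 4-leaf plants of 2–18 cm (postemergence). Flooded-paddy pots received compound directly into 3 cm of standing water, maintained for the test.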

Italian ryegrass = assay: Test C pre-/postemergence test; type: in vivo, Lolium multiflorum
How it was run: as §2

cocklebur = assay: Test C pre-/postemergence test; type: in vivo, Xanthium strumarium
How it was run: as §2

velvetleaf [1] = assay: Test C pre-/postemergence test; type: in vivo, Abutilon theophrasti
How it was run: as §2

woolly cupgrass = assay: Test C pre-/postemergence test; type: in vivo, Eriochloa villosa
How it was run: as §2

wild oat = assay: Test C pre-/postemergence test; type: in vivo, Avena fatua
How it was run: as §2

giant foxtail = assay: Test C pre-/postemergence test; type: in vivo, Setaria faberii
How it was run: as §2

velvetleaf [2] = assay: Test A pre-/postemergence greenhouse test; type: in vivo, Abutilon theophrasti; conditions: for Velvetleaf plant response rating: 0 to 100 scale
How it was run: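 Visual injury ratings against untreated controls, taken roughly ten days after treatment in greenhouse. Plants were sprayed postemergence at one- to two-leaf stage (2–10 cm tall); at the same time, seeded loam/sand soil received a directed preemergence spray. Formulation: non-phytotoxic solvent mixture with surfactant.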

barnyardgrass = assay: Test C flooded paddy test; type: in vivo, Echinochloa crus-galli; conditions: Flood
How it was run: as §1

corn = assay: Test C pre-/postemergence test; type: in vivo, Zea mays
How it was run: as §2

downy brome = assay: Test C pre-/postemergence test; type: in vivo, Bromus tectorum; conditions: preemergence, scale 0 (no effect) to 100 (complete control)
How it was run: as §2

soybean = assay: Test C pre-/postemergence test; type: in vivo, Glycine max
How it was run: as §2

green foxtail = assay: Test C pre-/postemergence test; type: in vivo, Setaria viridis
How it was run: as §2

blackgrass = assay: Test C pre-/postemergence test; type: in vivo, Alopecurus myosuroides
How it was run: as §2

catchweed bedstraw = assay: Test C pre-/postemergence test; type: in vivo, Galium aparine
How it was run: as §2

morningglory = assay: Test C pre-/postemergence test; type: in vivo, Ipomoea coccinea
How it was run: as §2

[3] = 31 g ai/ha, scale 0 to 100 (0 no effect, 100 complete control)
[4] = 62 g ai/ha, scale 0 to 100 (0 no effect, 100 complete control)
[5] = 125 g ai/ha, scale 0 to 100, 0 no effect, 100 complete control, 13 to 15 days
[6] = 250 g ai/ha, scale 0 to 100, 0 no effect, 100 complete control, 13 to 15 days
[7] = 62 g ai/ha, Preemergence, scale 0 to 100
[8] = 125 g ai/ha, preemergence, scale 0 (no effect) to 100 (complete control)
[9] = Preemergence, 31 g ai/ha, scale 0 to 100 (0 no effect, 100 complete control)
[10] = preemergence, 250 g ai/ha, scale 0 (no effect) to 100 (complete control)

## Cn1nc(C(F)(F)F)c(C[S+]([O-])c2ccc(Cl)c[n+]2[O-])c1OCC(F)F (stereo not drawn) [Compound 85]
Duck salad; [3]
  Plant response rating, Ducksalad: 35
Duck salad; [4]
  Plant response rating, Ducksalad: 45
Duck salad; [5]
  Plant response rating, Ducksalad: 75
Duck salad; [6]
  Plant response rating, Ducksalad: 80
johnsongrass; [7]
  Johnsongrass plant response rating: 85
johnsongrass; [8]
  Johnsongrass plant response rating: 100
johnsongrass; [9]
  Plant response rating, Johnsongrass: 85
johnsongrass; [10]
  Johnsongrass plant response rating: 100
Italian ryegrass; [7]
  Ryegrass, Italian plant response rating: 90
Italian ryegrass; [8]
  Ryegrass, Italian plant response rating: 90
Italian ryegrass; [9]
  Plant response rating, Ryegrass, Italian: 80
Italian ryegrass; [10]
  Ryegrass, Italian plant response rating: 100
cocklebur; [7]
  Cocklebur plant response rating: 0
cocklebur; [8]
  Cocklebur plant response rating: 0
cocklebur; [9]
  Plant response rating, Cocklebur: 0
cocklebur; [10]
  Cocklebur plant response rating: 0
Velvetleaf [1]; [7]
  Velvetleaf plant response rating: 70
Velvetleaf [1]; [8]
  Velvetleaf plant response rating: 95
Velvetleaf [1]; [9]
  Plant response rating, Velvetleaf: 50
Velvetleaf [1]; [10]
  Velvetleaf plant response rating: 100
Woolly cupgrass; [7]
  Cupgrass, Woolly plant response rating: 95
Woolly cupgrass; [8]
  Cupgrass, Woolly plant response rating: 95
Woolly cupgrass; [9]
  Plant response rating, Cupgrass, Woolly: 80
Woolly cupgrass; [10]
  Cupgrass, Woolly plant response rating: 100
Wild oat; [7]
  Oat, Wild plant response rating: 80
Wild oat; [8]
  Oat, Wild plant response rating: 85
Wild oat; [9]
  Plant response rating, Oat, Wild: 80
Wild oat; [10]
  Oat, Wild plant response rating: 100
Giant foxtail; [7]
  Foxtail, Giant plant response rating: 100
Giant foxtail; [9]
  Plant response rating, Foxtail, Giant: 85
Giant foxtail; [10]
  Foxtail, Giant plant response rating: 100
Velvetleaf [2]; Postemergence, 125 g ai/ha, 0 to 100 scale where 0 is no effect and 100 is complete control
  Plant response rating, Velvetleaf: 50
Velvetleaf [2]; Postemergence, 500 g ai/ha, 0 is no effect, 100 is complete control
  Velvetleaf plant response rating: 90
Velvetleaf [2]; Preemergence, 125 g ai/ha, 0 no effect, 100 complete control
  Velvetleaf plant response rating: 50
Velvetleaf [2]; Preemergence, 500 g ai/ha, 0 no effect, 100 complete control
  Velvetleaf plant response rating: 100
barnyardgrass; [3]
  Plant response rating, Barnyardgrass: 0
barnyardgrass; [4]
  Plant response rating, Barnyardgrass: 0
barnyardgrass; [5]
  Plant response rating, Barnyardgrass: 25
barnyardgrass; [6]
  Plant response rating, Barnyardgrass: 70
corn; [7]
  Corn plant response rating: 95
corn; [8]
  Corn plant response rating: 98
corn; [9]
  Plant response rating, Corn: 95
corn; [10]
  Corn plant response rating: 99
Downy brome; 125 g ai/ha
  Bromegrass, Downy plant response rating: 70
Downy brome; 250 g ai/ha
  Bromegrass, Downy plant response rating: 100
soybean; [7]
  Soybean plant response rating: 100
soybean; [9]
  Plant response rating, Soybean: 100
soybean; [10]
  Soybean plant response rating: 100
Green foxtail; [7]
  Foxtail, Green plant response rating: 100
Green foxtail; [8]
  Foxtail, Green plant response rating: 100
Green foxtail; [9]
  Plant response rating, Foxtail, Green: 100
Green foxtail; [10]
  Foxtail, Green plant response rating: 100
blackgrass; [7]
  Blackgrass plant response rating: 100
blackgrass; [8]
  Blackgrass plant response rating: 100
blackgrass; [9]
  Plant response rating, Blackgrass: 100
blackgrass; [10]
  Blackgrass plant response rating: 100
Catchweed bedstraw; [7]
  Galium plant response rating: 100
Catchweed bedstraw; [8]
  Galium plant response rating: 100
Catchweed bedstraw; [9]
  Plant response rating, Galium: 98
Catchweed bedstraw; [10]
  Galium plant response rating: 100
morningglory; [7]
  Morningglory plant response rating: 90
morningglory; [8]
  Morningglory plant response rating: 90
morningglory; [10]
  Morningglory plant response rating: 100

From US20100298141A1, “SUBSTITUTED PYRIDINE N-OXIDE HERBICIDES” (E. I. DU PONT DE NEMOURS AND COMPANY, priority 2007, published 2010)
